Experimental data taken from PubChem BioAssay (NCI).
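Test compounds were applied to cells in 96-well plates for 48 hours at 5 doses. Here, GI50 denotes the concentration required for 50% inhibition of growth. TGI denotes the concentration required for complete inhibition of growth.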

Key:
Assay in all cases: growth of human tumour cells (NCI), 48 h
A498 renal = system: A498 renal
OVCAR-3 ovarian = system: OVCAR-3 ovarian
IGROV1 ovarian = system: IGROV1 ovarian
OVCAR-5 ovarian = system: OVCAR-5 ovarian
SR leukemia = system: SR leukemia
SF-539 CNS = system: SF-539 CNS
NCI-H522 lung = system: NCI-H522 lung
LOX IMVI melanoma = system: LOX IMVI melanoma
CAKI-1 renal = system: CAKI-1 renal

SMILES | GI50 (A498 renal) | TGI (A498 renal) | GI50 (OVCAR-3 ovarian) | TGI (OVCAR-3 ovarian) | GI50 (IGROV1 ovarian) | TGI (IGROV1 ovarian) | GI50 (OVCAR-5 ovarian) | TGI (OVCAR-5 ovarian) | GI50 (SR leukemia) | TGI (SR leukemia) | GI50 (SF-539 CNS) | TGI (SF-539 CNS) | GI50 (NCI-H522 lung) | TGI (NCI-H522 lung) | GI50 (LOX IMVI melanoma) | TGI (LOX IMVI melanoma) | TGI (CAKI-1 renal) | GI50 (CAKI-1 renal)
O=C1C=C(N2CC2)c2ccccc2C1=O | 1.36 µM | 2.84 µM | 1.77 µM | 3.27 µM | 1.79 µM | 3.23 µM | 2.03 µM | 3.68 µM | 1.21 µM | 4.78 µM | 1.83 µM | 3.34 µM | 1.42 µM | 2.93 µM | 2.11 µM | 13 µM |  | 
N/C(=N\OC(=O)NC(Cl)=C(Cl)Cl)c1cc(C(F)(F)F)cc(C(F)(F)F)c1 |  | 32.3 µM |  | 28.6 µM |  | 66 µM |  | 38.3 µM |  | 26.2 µM |  | 29.9 µM |  |  |  | 31.8 µM | 33.8 µM | 
O=C1c2cnccc2Cc2cccc3c2N1c1ccccc1S3 |  | 69.8 µM |  | 44.5 µM |  | 98.9 µM |  |  |  | 34.8 µM |  | 43.3 µM |  | 32.2 µM |  | 57.5 µM | 32.6 µM | 
C(=C1\CCC/C(=C/c2ccccc2)C1=NNc1ccccc1)/c1ccccc1 |  | > 100 µM |  | > 100 µM |  | > 100 µM |  | > 100 µM |  |  |  | > 100 µM |  | > 100 µM |  | > 100 µM |  | 
COc1ccc(-c2cc(-c3ccccc3)c(C#N)c(=O)[nH]2)cc1 |  | > 100 µM |  | > 100 µM |  | > 100 µM |  | > 100 µM |  | > 100 µM |  | > 100 µM |  | > 100 µM |  | > 100 µM |  | 
CC1(C)CCc2cc3c(cc2O1)OC(C)(C)C1c2c(ccc4c2CCC(C)(C)O4)OC31 (stereo unspecified) |  |  |  | > 100 µM |  | > 100 µM |  | > 100 µM |  | > 100 µM |  | > 100 µM |  | > 100 µM |  | > 100 µM | > 100 µM | 
Cn1cc2ccccc2c1-c1nc(F)nc(Oc2ccc3c(c2)CC[C@@H]2C3CC[C@]3(C)C(O)CCC23)n1 (stereo partly specified) |  |  |  | 31.8 µM |  | 30.8 µM |  | 33.3 µM |  |  |  | 32.7 µM |  | 26 µM |  | 36.9 µM |  | 
CSc1nc2c(nc(N)n2C2OCC(O)C(O)C2O)c(=O)[nH]1 (stereo unspecified) |  | > 100 µM |  | > 100 µM |  | > 100 µM |  |  |  | > 100 µM |  | > 100 µM |  | > 100 µM |  | > 100 µM | > 100 µM | 
O=C1c2c(c3c4ccccc4n4c3c3c2c2ccccc2n3C/C=C\C4)C(=O)N1Cc1ccccc1 |  | > 100 µM |  | > 100 µM |  | > 100 µM |  | > 100 µM |  | > 100 µM |  | > 100 µM |  | > 100 µM |  | > 100 µM |  | 
Cn1c(=O)c(C(c2ccccc2)c2c(O)c3ccccc3n(C)c2=O)c(O)c2ccccc21 |  |  |  | > 100 µM |  | > 100 µM |  | 93.1 µM |  | > 100 µM |  | > 100 µM |  | > 100 µM |  | > 100 µM | > 100 µM | 
CC(C)O/C=C1\C(=O)C2(SCCS2)[C@H]2CCCC[C@@H]12 |  | 75 µM |  |  |  | > 100 µM |  |  |  | > 100 µM |  | > 100 µM |  | 53.9 µM |  |  | > 100 µM | 
CC1=C(C(=O)Nc2ccccc2C)C(c2ccc(N(C)C)cc2)C(C(=O)Nc2ccccc2C)=C(C)N1 |  | > 100 µM |  | > 100 µM |  | > 100 µM |  | > 100 µM |  |  |  | > 100 µM |  | > 100 µM |  | > 100 µM |  | 
COc1ccc2oc(-c3ccncc3)cc(=O)c2c1 |  | > 100 µM |  | > 100 µM |  | > 100 µM |  | > 100 µM |  |  |  |  |  |  |  | > 100 µM | > 100 µM | 
CCCNC(=O)c1cc2ccccc2cc1C(=O)OC |  | > 100 µM |  | > 100 µM |  | > 100 µM |  | > 100 µM |  |  |  | > 100 µM |  | > 100 µM |  |  | > 100 µM | 
OCCc1cnco1 |  |  |  | > 100 µM |  | > 100 µM |  |  |  |  |  | > 100 µM |  | > 100 µM |  | > 100 µM |  | 
O=C1C2Cc3ccccc3CN2C(=O)N1CN1CCN(CN2C(=O)C3Cc4ccccc4CN3C2=O)CC1 (stereo unspecified) |  | > 100 µM |  | > 100 µM |  | > 100 µM |  | > 100 µM |  |  |  | > 100 µM |  | > 100 µM |  | > 100 µM | > 100 µM | 
COc1cc2c(c3oc(-c4ccc5c(c4)OCO5)c(O)c(=O)c13)CCC(C)(C)O2 |  | > 100 µM |  | > 100 µM |  | > 100 µM |  |  |  |  |  | > 100 µM |  |  |  | > 100 µM |  | 
COc1cc2ccc(CC#N)cc2cc1OC |  | > 100 µM |  |  |  |  |  | > 100 µM |  | > 100 µM |  | > 100 µM |  |  |  | > 100 µM | > 100 µM | 
CC1SC2=NC3=C(c4ccccc4C3=O)C(c3ccc(Br)cc3)N2C1=O (stereo unspecified) |  | > 100 µM |  | > 100 µM |  | > 100 µM |  | > 100 µM |  |  |  |  |  | 48.3 µM |  |  | > 100 µM | 
COc1ccc(CNc2nc3ccccc3nc2-c2cccs2)cc1OC |  |  |  | > 100 µM |  |  |  | > 100 µM |  | > 100 µM |  | > 100 µM |  |  |  |  |  | 
CCC[CH2][Sn]1([CH2]CCC)[O]C(=O)C[S]1 |  |  | 1.57 µM | 3.03 µM | 1.86 µM | 4.16 µM | 2.09 µM | 5.27 µM | 1.13 µM | 7.09 µM | 1.64 µM | 3.43 µM | 0.212 µM | 0.814 µM | 1.46 µM | 3.09 µM | 3.47 µM | 0.759 µM
